We go through 8 molecules from PubChem BioAssay (NCI).

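Results reflect a 48-hour exposure of cells in 96-well plates to compound at five concentrations. GI50 is the concentration that inhibits growth by half. TGI is the concentration that stops growth completely.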

Among the test systems are RXF 393 renal; SNB-75 CNS; UACC-62 melanoma; A549 NSCLC; SK-OV-3 ovarian; T-47D breast; HCT-116 colon; HOP-62 NSCLC; MDA-MB-435; SF-295 CNS.
Test in all cases: NCI tumour cell line growth inhibition, 48 h

With `COc1cc(C(=O)O[C@H](C(N)=O)[C@]2(C)CO2)c2cccc(C)c2c1`, the GI50 in the assay on RXF 393 renal was 0.148 µM; in the assay on SNB-75 CNS it was 0.933 µM; with UACC-62 melanoma it was 0.02 µM; in the assay with SK-OV-3 ovarian it was 1.45 µM; in the assay with T-47D breast, 1.11 µM; in the assay with HCT-116 colon, 0.431 µM. Moreover, the GI50 with HOP-62 NSCLC is 2.23 µM; with MDA-MB-435 it was under 0.0215 µM; in the assay with SF-295 CNS it was under 0.0417 µM. Also, the TGI is 1.1 µM in the assay on RXF 393 renal; 4.13 µM with SNB-75 CNS; 0.154 µM with UACC-62 melanoma; over 100 µM with A549 NSCLC; 7.99 µM in the assay with SK-OV-3 ovarian; 8.1 µM in the assay with T-47D breast. Besides, the TGI in the assay with HCT-116 colon is 2.32 µM; with HOP-62 NSCLC, 5.35 µM; in the assay on MDA-MB-435 it was 0.126 µM; in the assay on SF-295 CNS it was 1.84 µM.

Consider `C=C(C)[C@@H]1CC[C@]2(C)[C@H](CC[C@@H]3[C@@H]([C@@](C)(O)CCC=C(C)C)CC[C@]32C)[C@@]1(C)CCC(=O)O`, for which the GI50 with RXF 393 renal was 14.3 µM; with SNB-75 CNS, 15.3 µM; in the assay on UACC-62 melanoma, 13.9 µM; in the assay on A549 NSCLC, 23.3 µM; in the assay on SK-OV-3 ovarian it was 32.9 µM; in the assay on T-47D breast, 21.5 µM. Besides, the GI50 in the assay with HCT-116 colon was 15.4 µM; in the assay on HOP-62 NSCLC it was 18.6 µM; in the assay on MDA-MB-435, 17.9 µM; in the assay with SF-295 CNS, 17.7 µM. In addition, the TGI in the assay with RXF 393 renal is 28.6 µM; in the assay on SNB-75 CNS, 34.8 µM; in the assay on UACC-62 melanoma it was 29.5 µM; in the assay with A549 NSCLC it was 91.9 µM; in the assay on SK-OV-3 ovarian, over 100 µM; in the assay with T-47D breast, over 100 µM. Moreover, the TGI with HCT-116 colon amounted to 29.8 µM; with HOP-62 NSCLC it was 45.3 µM; in the assay on MDA-MB-435 it was 38.6 µM; in the assay with SF-295 CNS it was 32.2 µM.

As to `C=CCn1c(SCC(=O)Nc2ccc(C(=O)/C=C/c3cc(OC)c(OC)c(OC)c3)cc2)nnc1-c1ccc(OC)cc1`, the GI50 is 0.377 µM with RXF 393 renal; 0.311 µM in the assay on SNB-75 CNS; 0.865 µM in the assay with UACC-62 melanoma; 0.875 µM in the assay with A549 NSCLC; 1.21 µM in the assay with SK-OV-3 ovarian; 0.455 µM with T-47D breast. Besides, the GI50 was 0.223 µM in the assay with HCT-116 colon, 0.691 µM in the assay with HOP-62 NSCLC, 0.327 µM in the assay on MDA-MB-435 and 0.9 µM in the assay with SF-295 CNS. Moreover, the TGI worked out at 1.41 µM in the assay with RXF 393 renal; 9.19 µM in the assay on SNB-75 CNS; 3.78 µM in the assay with UACC-62 melanoma; 4.83 µM in the assay on A549 NSCLC; 9.96 µM in the assay with SK-OV-3 ovarian; 5.73 µM in the assay with T-47D breast. The TGI with HCT-116 colon was determined as 0.52 µM; in the assay on HOP-62 NSCLC, 1.75 µM; in the assay with MDA-MB-435, 1.6 µM; in the assay with SF-295 CNS it was 4.88 µM.

Turning to `O=C(N/N=C/c1ccc(O)cc1O)c1cccnc1`, the GI50 with RXF 393 renal was 3.74 µM; in the assay with SNB-75 CNS it was 1.15 µM; in the assay with UACC-62 melanoma, 2.38 µM; in the assay on A549 NSCLC, 4.66 µM; in the assay on SK-OV-3 ovarian, 11.4 µM; in the assay with T-47D breast, 3.45 µM. In addition, the GI50 is 0.876 µM with HCT-116 colon, 13.4 µM with HOP-62 NSCLC, 7.52 µM in the assay on MDA-MB-435 and 6.66 µM in the assay on SF-295 CNS. The TGI is over 100 µM in the assay with RXF 393 renal; 26.1 µM with SNB-75 CNS; 17.5 µM with UACC-62 melanoma; over 100 µM in the assay on A549 NSCLC; over 100 µM with SK-OV-3 ovarian; 86 µM with T-47D breast. In addition, the TGI in the assay on HCT-116 colon, with HOP-62 NSCLC, in the assay with MDA-MB-435 and with SF-295 CNS was over 100 µM throughout.

As to `CCOC(=O)C1=C(N)Oc2c(sc3c(C)cccc23)C1c1ccc(F)cc1` (centres undefined), the GI50 with RXF 393 renal was 0.242 µM; in the assay on SNB-75 CNS, 0.265 µM; in the assay with UACC-62 melanoma it was 0.399 µM; in the assay on A549 NSCLC, 0.804 µM; with SK-OV-3 ovarian, 11.5 µM; in the assay with T-47D breast it was 2.61 µM. The GI50 was 0.429 µM in the assay on HCT-116 colon, 0.618 µM in the assay on HOP-62 NSCLC, 0.21 µM in the assay with MDA-MB-435 and 0.297 µM in the assay with SF-295 CNS. The TGI with RXF 393 renal amounted to 0.639 µM; in the assay with SNB-75 CNS it was 11.7 µM; in the assay on UACC-62 melanoma it was 13.5 µM; in the assay on A549 NSCLC it was 17.2 µM; in the assay on SK-OV-3 ovarian it was 32.3 µM; with T-47D breast, 26.4 µM. The TGI turned out to be 11.8 µM in the assay with HCT-116 colon, 20.1 µM with HOP-62 NSCLC, 0.464 µM in the assay on MDA-MB-435 and 2.41 µM in the assay with SF-295 CNS.

In the case of `COc1cc(/C=C/C(=O)Oc2ccccc2)ccc1C(=O)O/C=C/c1ccccc1`, the TGI in the assay with RXF 393 renal, with SNB-75 CNS, in the assay on UACC-62 melanoma, in the assay with A549 NSCLC, in the assay with SK-OV-3 ovarian and in the assay with T-47D breast was over 100 µM throughout. The TGI in the assay on HCT-116 colon, in the assay on HOP-62 NSCLC, with MDA-MB-435 and in the assay with SF-295 CNS was over 100 µM each time.

As for `COc1ccc(/C=C/c2cnccn2)cc1OC`, the TGI in the assay with RXF 393 renal, with SNB-75 CNS, in the assay on UACC-62 melanoma, with A549 NSCLC, in the assay on SK-OV-3 ovarian and with T-47D breast was over 10 µM throughout. Besides, the TGI with HCT-116 colon, with HOP-62 NSCLC, in the assay on MDA-MB-435 and in the assay with SF-295 CNS was over 10 µM each time.

As for `Oc1ccc(Oc2cnc3ccccc3n2)cc1`, the GI50 with RXF 393 renal is 34.3 µM; with SNB-75 CNS it was 60 µM; in the assay on UACC-62 melanoma it was over 100 µM; with A549 NSCLC, over 100 µM; in the assay with SK-OV-3 ovarian, over 100 µM; with T-47D breast, 84.5 µM. Further, the GI50 was over 100 µM with HCT-116 colon, over 100 µM in the assay with HOP-62 NSCLC, over 100 µM with MDA-MB-435 and 38.2 µM in the assay with SF-295 CNS. Further, the TGI with RXF 393 renal, in the assay on SNB-75 CNS, with UACC-62 melanoma, with A549 NSCLC, in the assay on SK-OV-3 ovarian and in the assay on T-47D breast was over 100 µM each time. Besides, the TGI in the assay with HCT-116 colon, with HOP-62 NSCLC, in the assay on MDA-MB-435 and in the assay on SF-295 CNS was over 100 µM in each case.
